For five molecules, Activity and Kb results are on record in ChEMBL document CHEMBL2202991, “The effect of the length and flexibility of the side chain of basic amino acids on the binding of antimicrobial peptides to zwitterionic and anionic membrane model systems” (Bioorg Med Chem, 2012).

For test [1], the system named is Lipid bilayer. As to the kind of experiment: Binding affinity to 4:1 POPC/POPG large unilamellar vesicle assessed as lipid:compound molar ratio for complete interaction at 0.2 mM by isothermal titration calorimetric analysis. On the technique in general: ITC needs no label: the signal is the heat of the interaction.
Test [2] relates to Lipid bilayer. As to the kind of experiment: Binding affinity to POPC large unilamellar vesicle at 0.2 mM by isothermal titration calorimetric analysis.
Test [3] relates to Lipid bilayer. Briefly: Binding affinity to POPC large unilamellar vesicle assessed as lipid:compound molar ratio for complete interaction at 0.2 mM by isothermal titration calorimetric analysis.
In test [4] the test system is Lipid bilayer. As to the kind of experiment: Binding affinity to 4:1 POPC/POPG small unilamellar vesicle at 100 uM by circular dichroism analysis. For orientation: CD spectra are sensitive to the conformation of chiral molecules.
Test [5] has as its system Lipid bilayer. Briefly: Binding affinity to POPC large unilamellar vesicle at 200 uM by pseudo titration based circular dichroism analysis.
For test [6], the system named is Lipid bilayer. Briefly: Binding affinity to 4:1 POPC/POPG large unilamellar vesicle at 100 uM by circular dichroism analysis.
Test [7] deals with Lipid bilayer. Briefly: Binding affinity to POPC small unilamellar vesicle at 100 uM by circular dichroism analysis.
The subject of test [8] is Lipid bilayer. Briefly: Binding affinity to POPC large unilamellar vesicle at 200 uM by circular dichroism analysis.
Test [9] can be described thus: Binding affinity to zwitterionic dodecylphosphocholine micelle at 100 uM by circular dichroism analysis.
Test [10] in a line: Binding affinity to anionic sodium dodecyl sulfate micelle at 100 uM by circular dichroism analysis.
The subject of test [11] is Lipid bilayer. Briefly: Binding affinity to 4:1 POPC/POPG large unilamellar vesicles assessed as calcein leakage at 20 uM measured up to 90 mins by fluorimetric analysis.
Test [12] deals with Lipid bilayer. Briefly: Binding affinity to POPC large unilamellar vesicles assessed as calcein leakage at 20 uM measured up to 90 mins by fluorimetric analysis.
Test [13] deals with Lipid bilayer. As to the kind of experiment: Binding affinity to 4:1 POPC/POPG large unilamellar vesicle assessed as lipid:compound molar ratio required for integration into membrane at 200 uM by pseudo titration-based circular dichroism analysis.
Test [14] deals with Lipid bilayer. Briefly: Binding affinity to POPC large unilamellar vesicle at 100 uM by pseudo titration based circular dichroism analysis.
The test system of test [15] is Lipid bilayer. As to the kind of experiment: Binding affinity to POPC large unilamellar vesicle at 100 uM by circular dichroism analysis.
Test [16] has as its system Lipid bilayer. Briefly: Binding affinity to 4:1 POPC/POPG large unilamellar vesicles assessed as calcein leakage at 4 to 20 uM measured up to 90 mins by fluorimetric analysis.
Test [17] concerns Lipid bilayer. Briefly: Binding affinity to POPC large unilamellar vesicles assessed as calcein leakage at 4 to 20 uM measured up to 90 mins by fluorimetric analysis.
For test [18], the system named is Lipid bilayer. As to the kind of experiment: Binding affinity to 4:1 POPC/POPG large unilamellar vesicle at 200 uM by pseudo titration-based circular dichroism analysis.
Test [19] has as its system Lipid bilayer. Briefly: Binding affinity to 4:1 POPC/POPG large unilamellar vesicle assessed as lipid:compound molar ratio required for integration into membrane at 100 uM by pseudo titration-based circular dichroism analysis.
For test [20], the system named is Lipid bilayer. Briefly: Binding affinity to 4:1 POPC/POPG large unilamellar vesicles assessed as calcein leakage at 4 uM measured up to 90 mins by fluorimetric analysis.
Test [21] relates to Lipid bilayer. As to the kind of experiment: Binding affinity to POPC large unilamellar vesicles assessed as calcein leakage at 4 uM measured up to 90 mins by fluorimetric analysis.

Activity calls are given as the source filed them. No cut-off for these calls is given here. Non-standard residues stand in square brackets, D forms with d. Residues, ends and D or L forms follow the SMILES beside them. ξ: configuration not given here. Pro(3ξ,4ξ-(CH2)4) = O=C(O)[C@H]1NCC2CCCCC21; Tic = O=C(O)[C@@H]1Cc2ccccc2CN1; ξR = N=C(N)NCCCC(N)C(=O)O; Dab = NCC[C@H](N)C(=O)O; Dap = NC[C@H](N)C(=O)O

For `CC(=O)NCC(=O)N[C@@H](Cc1ccccc1)C(=O)N1Cc2ccccc2C[C@H]1C(=O)N1CC2CCCCC2[C@H]1C(=O)NCC(=O)N[C@@H](CCCCN)C(=O)N1Cc2ccccc2C[C@H]1C(=O)N1CC2CCCCC2[C@H]1C(=O)NCC(=O)N[C@@H](Cc1ccccc1)C(=O)N1Cc2ccccc2C[C@H]1C(=O)N1CC2CCCCC2[C@H]1C(=O)NCC(=O)N[C@@H](CCCCN)C(=O)N1Cc2ccccc2C[C@H]1C(=O)N[C@@H](CCCCN)C(=O)N[C@@H](CCCCN)C(=O)N[C@@H](CCCCN)C(=O)N[C@@H](CCCCN)C(N)=O` (some centres not stated) (Ac-GF[Tic][Pro(3ξ,4ξ-(CH2)4)]GK[Tic][Pro(3ξ,4ξ-(CH2)4)]GF[Tic][Pro(3ξ,4ξ-(CH2)4)]GK[Tic]KKKK-NH2), the Activity in the test with Lipid bilayer [1] is 30 molar ratio; in the test with Lipid bilayer [3], 120 molar ratio; in the test with Lipid bilayer [11], 40%; in the test on Lipid bilayer [12] it was 25%; in the test on Lipid bilayer [13], 39 molar ratio. This molecule also displayed a Kb in the test on Lipid bilayer [2] of 211 M⁻¹. The result (in the test on Lipid bilayer [4]; with Lipid bilayer [5]; in the test with Lipid bilayer [6]; in the test with Lipid bilayer [7]; with Lipid bilayer [8]; in test [9]) was Active. In addition, the result in test [10] was Active.

With `CC(=O)NCC(=O)N[C@@H](Cc1ccccc1)C(=O)N1Cc2ccccc2C[C@H]1C(=O)N1CC2CCCCC2[C@H]1C(=O)NCC(=O)N[C@@H](CCN)C(=O)N1Cc2ccccc2C[C@H]1C(=O)N1CC2CCCCC2[C@H]1C(=O)NCC(=O)N[C@@H](Cc1ccccc1)C(=O)N1Cc2ccccc2C[C@H]1C(=O)N1CC2CCCCC2[C@H]1C(=O)NCC(=O)N[C@@H](CCN)C(=O)N1Cc2ccccc2C[C@H]1C(=O)N[C@@H](CCN)C(=O)N[C@@H](CCN)C(=O)N[C@@H](CCN)C(=O)N[C@@H](CCN)C(N)=O` (some centres not stated) (Ac-GF[Tic][Pro(3ξ,4ξ-(CH2)4)]G[Dab][Tic][Pro(3ξ,4ξ-(CH2)4)]GF[Tic][Pro(3ξ,4ξ-(CH2)4)]G[Dab][Tic][Dab][Dab][Dab][Dab]-NH2), the Activity with Lipid bilayer [1] is 20 molar ratio; with Lipid bilayer [3] it was 130 molar ratio; in the test with Lipid bilayer [13], 22 molar ratio. This molecule gave a Kb with Lipid bilayer [2] of 240 M⁻¹. In addition, the result (with Lipid bilayer [4]; in the test on Lipid bilayer [14]; in the test with Lipid bilayer [6]; in the test with Lipid bilayer [7]; in the test on Lipid bilayer [15]; in test [9]) was Active. Moreover, the result (in test [10]; in the test on Lipid bilayer [16]; in the test with Lipid bilayer [17]) was Active.

Consider `CC(=O)NCC(=O)N[C@@H](Cc1ccccc1)C(=O)N1Cc2ccccc2C[C@H]1C(=O)N1CC2CCCCC2[C@H]1C(=O)NCC(=O)N[C@@H](CN)C(=O)N1Cc2ccccc2C[C@H]1C(=O)N1CC2CCCCC2[C@H]1C(=O)NCC(=O)N[C@@H](Cc1ccccc1)C(=O)N1Cc2ccccc2C[C@H]1C(=O)N1CC2CCCCC2[C@H]1C(=O)NCC(=O)N[C@@H](CN)C(=O)N1Cc2ccccc2C[C@H]1C(=O)N[C@@H](CN)C(=O)N[C@@H](CN)C(=O)N[C@@H](CN)C(=O)N[C@@H](CN)C(N)=O` (some centres not stated) (Ac-GF[Tic][Pro(3ξ,4ξ-(CH2)4)]G[Dap][Tic][Pro(3ξ,4ξ-(CH2)4)]GF[Tic][Pro(3ξ,4ξ-(CH2)4)]G[Dap][Tic][Dap][Dap][Dap][Dap]-NH2), for which the Activity with Lipid bilayer [1] is 55 molar ratio; with Lipid bilayer [3] it was 55 molar ratio; in the test on Lipid bilayer [11] it was 100%; in the test on Lipid bilayer [12], 100%. The molecule also displayed a Kb in the test with Lipid bilayer [2] of 570 M⁻¹. Moreover, the outcome in the test on Lipid bilayer [4], in the test with Lipid bilayer [18], with Lipid bilayer [5], with Lipid bilayer [6], in the test with Lipid bilayer [7] and in the test on Lipid bilayer [8] was Active. Moreover, the result in test [9] and in test [10] was Active.

As for `CC(=O)NCC(=O)N[C@@H](Cc1ccccc1)C(=O)N1Cc2ccccc2C[C@H]1C(=O)N1CC2CCCCC2[C@H]1C(=O)NCC(=O)NC(CCCNC(=N)N)C(=O)N1Cc2ccccc2C[C@H]1C(=O)N1CC2CCCCC2[C@H]1C(=O)NCC(=O)N[C@@H](Cc1ccccc1)C(=O)N1Cc2ccccc2C[C@H]1C(=O)N1CC2CCCCC2[C@H]1C(=O)NCC(=O)N[C@@H](CCCNC(=N)N)C(=O)N1Cc2ccccc2C[C@H]1C(=O)N[C@@H](CCCNC(=N)N)C(=O)N[C@@H](CCCNC(=N)N)C(=O)N[C@@H](CCCNC(=N)N)C(=O)N[C@@H](CCCNC(=N)N)C(N)=O` (some centres not stated) (Ac-GF[Tic][Pro(3ξ,4ξ-(CH2)4)]G[ξR][Tic][Pro(3ξ,4ξ-(CH2)4)]GF[Tic][Pro(3ξ,4ξ-(CH2)4)]GR[Tic]RRRR-NH2), the Activity in the test with Lipid bilayer [1] was 30 molar ratio; in the test on Lipid bilayer [3], 150 molar ratio; in the test with Lipid bilayer [19] it was 52 molar ratio; with Lipid bilayer [20], 50%; in the test with Lipid bilayer [11] it was 90%; with Lipid bilayer [21], 60%. Besides, the Activity in the test on Lipid bilayer [12] was 60%. This molecule came in with a Kb in the test with Lipid bilayer [2] of 479 M⁻¹. Also, the outcome (with Lipid bilayer [4]; with Lipid bilayer [14]; with Lipid bilayer [6]; with Lipid bilayer [7]; in the test with Lipid bilayer [15]; in test [9]) was Active. Moreover, in [10], the result was Active.

In the case of `CC(=O)NCC(=O)N[C@@H](Cc1ccccc1)C(=O)N1Cc2ccccc2C[C@H]1C(=O)N1CC2CCCCC2[C@@H]1C(=O)NCC(=O)N[C@H](CCCN)C(=O)N1Cc2ccccc2C[C@@H]1C(=O)N1CC2CCCCC2[C@H]1C(=O)NCC(=O)NC(Cc1ccccc1)C(=O)N1Cc2ccccc2C[C@@H]1C(=O)N1CC2CCCCC2[C@@H]1C(=O)NCC(=O)N[C@H](CCCN)C(=O)N1Cc2ccccc2C[C@@H]1C(=O)N[C@H](CCCN)C(=O)N[C@H](CCCN)C(=O)N[C@H](CCCN)C(=O)N[C@H](CCCN)C(N)=O` (single isomer, unassigned), the Activity amounted to 28 molar ratio in the test on Lipid bilayer [1], 130 molar ratio in the test with Lipid bilayer [3] and 36 molar ratio in the test on Lipid bilayer [13]. The Kb with Lipid bilayer [2] was 191 M⁻¹. Besides, the result (in the test on Lipid bilayer [4]; in the test with Lipid bilayer [14]; with Lipid bilayer [6]; in the test with Lipid bilayer [7]; with Lipid bilayer [15]; in [9]) was Active. In addition, the result (in test [10]; with Lipid bilayer [16]; in the test with Lipid bilayer [17]) was Active.
